# Assay results taken from PubChem BioAssay (NCI).
#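 These data come from cells grown in 96-well plates and exposed to compound for 48 hours at five concentrations. TGI denotes the concentration required for complete inhibition of growth.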
# How the values were obtained:
# Assay in all cases: NCI-60 cell line screen, 48 h
# KM12 colon = tested on: KM12 colon
# IGROV1 ovarian = tested on: IGROV1 ovarian
# SF-539 CNS = tested on: SF-539 CNS
# SK-OV-3 ovarian = tested on: SK-OV-3 ovarian
# OVCAR-4 ovarian = tested on: OVCAR-4 ovarian
# CAKI-1 renal = tested on: CAKI-1 renal
# MDA-N = tested on: MDA-N
# RPMI-8226 leukemia = tested on: RPMI-8226 leukemia
# ACHN renal = tested on: ACHN renal
# HCT-116 colon = tested on: HCT-116 colon
# A549 NSCLC = tested on: A549 NSCLC
# MCF7 breast = tested on: MCF7 breast
# OVCAR-5 ovarian = tested on: OVCAR-5 ovarian
# HS 578T breast = tested on: HS 578T breast
# MDA-MB-435 = tested on: MDA-MB-435
# A498 renal = tested on: A498 renal
# SNB-75 CNS = tested on: SNB-75 CNS
# U251 CNS = tested on: U251 CNS
# OVCAR-8 ovarian = tested on: OVCAR-8 ovarian
# SK-MEL-2 melanoma = tested on: SK-MEL-2 melanoma
# SF-268 CNS = tested on: SF-268 CNS
# SNB-19 CNS = tested on: SNB-19 CNS
# SN12C renal = tested on: SN12C renal
# TK-10 renal = tested on: TK-10 renal
# HT29 colon = tested on: HT29 colon
# OVCAR-3 ovarian = tested on: OVCAR-3 ovarian
# UACC-62 melanoma = tested on: UACC-62 melanoma
# MOLT-4 leukemia = tested on: MOLT-4 leukemia
# HL-60(TB) leukemia = tested on: HL-60(TB) leukemia
# K-562 leukemia = tested on: K-562 leukemia
# NCI-H23 lung = tested on: NCI-H23 lung
# HOP-62 NSCLC = tested on: HOP-62 NSCLC
# NCI-H226 lung = tested on: NCI-H226 lung
# SW-620 colon = tested on: SW-620 colon
# RXF 393 renal = tested on: RXF 393 renal
# BT-549 breast = tested on: BT-549 breast
# EKVX NSCLC = tested on: EKVX NSCLC
# MALME-3M melanoma = tested on: MALME-3M melanoma
# SF-295 CNS = tested on: SF-295 CNS
# HCC-2998 colon = tested on: HCC-2998 colon
# 786-0 renal = tested on: 786-0 renal
# NCI-H522 lung = tested on: NCI-H522 lung
# NCI-H460 lung = tested on: NCI-H460 lung
# SK-MEL-5 melanoma = tested on: SK-MEL-5 melanoma
# SR leukemia = tested on: SR leukemia
# DU-145 prostate = tested on: DU-145 prostate
# LOX IMVI melanoma = tested on: LOX IMVI melanoma
# CCRF-CEM leukemia = tested on: CCRF-CEM leukemia
# M14 melanoma = tested on: M14 melanoma
# COLO 205 colon = tested on: COLO 205 colon
# HOP-92 NSCLC = tested on: HOP-92 NSCLC
# MDA-MB-231 breast = tested on: MDA-MB-231 breast
# PC-3 prostate = tested on: PC-3 prostate
# HCT-15 colon = tested on: HCT-15 colon
# UACC-257 melanoma = tested on: UACC-257 melanoma
# NCI/ADR-RES ovarian = tested on: NCI/ADR-RES ovarian
# SK-MEL-28 melanoma = tested on: SK-MEL-28 melanoma
# T-47D breast = tested on: T-47D breast
# UO-31 renal = tested on: UO-31 renal
smiles,measurement,setting,value
CCOP1(=O)CC(C)=C(Cl)C(OC)C1 (centres undefined),TGI,KM12 colon,> 100 µM
same,TGI,IGROV1 ovarian,> 100 µM
same,TGI,SF-539 CNS,> 100 µM
same,TGI,SK-OV-3 ovarian,> 100 µM
same,TGI,OVCAR-4 ovarian,> 100 µM
same,TGI,CAKI-1 renal,> 100 µM
same,TGI,MDA-N,> 100 µM
same,TGI,RPMI-8226 leukemia,> 100 µM
same,TGI,ACHN renal,> 100 µM
same,TGI,HCT-116 colon,> 100 µM
same,TGI,A549 NSCLC,> 100 µM
same,TGI,MCF7 breast,> 100 µM
same,TGI,OVCAR-5 ovarian,> 100 µM
same,TGI,HS 578T breast,> 100 µM
same,TGI,MDA-MB-435,> 100 µM
same,TGI,A498 renal,> 100 µM
same,TGI,SNB-75 CNS,> 100 µM
same,TGI,U251 CNS,> 100 µM
same,TGI,OVCAR-8 ovarian,> 100 µM
same,TGI,SK-MEL-2 melanoma,> 100 µM
same,TGI,SF-268 CNS,> 100 µM
same,TGI,SNB-19 CNS,> 100 µM
same,TGI,SN12C renal,> 100 µM
same,TGI,TK-10 renal,> 100 µM
same,TGI,HT29 colon,> 100 µM
same,TGI,OVCAR-3 ovarian,> 100 µM
same,TGI,UACC-62 melanoma,> 100 µM
same,TGI,MOLT-4 leukemia,> 100 µM
same,TGI,HL-60(TB) leukemia,> 100 µM
same,TGI,K-562 leukemia,77.3 µM
same,TGI,NCI-H23 lung,> 100 µM
same,TGI,HOP-62 NSCLC,> 100 µM
same,TGI,NCI-H226 lung,> 100 µM
same,TGI,SW-620 colon,> 100 µM
same,TGI,RXF 393 renal,> 100 µM
same,TGI,BT-549 breast,> 100 µM
same,TGI,EKVX NSCLC,> 100 µM
same,TGI,MALME-3M melanoma,> 100 µM
same,TGI,SF-295 CNS,> 100 µM
same,TGI,HCC-2998 colon,> 100 µM
same,TGI,786-0 renal,> 100 µM
same,TGI,NCI-H522 lung,> 100 µM
same,TGI,NCI-H460 lung,> 100 µM
same,TGI,SK-MEL-5 melanoma,> 100 µM
same,TGI,SR leukemia,> 100 µM
same,TGI,DU-145 prostate,> 100 µM
same,TGI,LOX IMVI melanoma,> 100 µM
same,TGI,CCRF-CEM leukemia,> 100 µM
same,TGI,M14 melanoma,> 100 µM
same,TGI,COLO 205 colon,> 100 µM
same,TGI,HOP-92 NSCLC,> 100 µM
same,TGI,MDA-MB-231 breast,> 100 µM
same,TGI,PC-3 prostate,> 100 µM
same,TGI,HCT-15 colon,> 100 µM
same,TGI,UACC-257 melanoma,> 100 µM
same,TGI,NCI/ADR-RES ovarian,> 100 µM
same,TGI,SK-MEL-28 melanoma,> 100 µM
Cc1ccc(S(=O)(=O)N/N=C2\C=CC3(CC2)C(=O)N(I)c2ccccc23)cc1 (centres undefined),TGI,KM12 colon,> 100 µM
same,TGI,SF-539 CNS,> 100 µM
same,TGI,SK-OV-3 ovarian,> 100 µM
same,TGI,OVCAR-4 ovarian,> 100 µM
same,TGI,CAKI-1 renal,> 100 µM
same,TGI,MDA-N,> 100 µM
same,TGI,RPMI-8226 leukemia,> 100 µM
same,TGI,ACHN renal,> 100 µM
same,TGI,HCT-116 colon,> 100 µM
same,TGI,A549 NSCLC,> 100 µM
same,TGI,OVCAR-5 ovarian,> 100 µM
same,TGI,MDA-MB-435,> 100 µM
same,TGI,A498 renal,> 100 µM
same,TGI,SNB-75 CNS,> 100 µM
same,TGI,U251 CNS,> 100 µM
same,TGI,OVCAR-8 ovarian,> 100 µM
same,TGI,T-47D breast,> 100 µM
same,TGI,SK-MEL-2 melanoma,> 100 µM
same,TGI,SF-268 CNS,> 100 µM
same,TGI,SNB-19 CNS,> 100 µM
same,TGI,SN12C renal,> 100 µM
same,TGI,TK-10 renal,> 100 µM
same,TGI,HT29 colon,> 100 µM
same,TGI,OVCAR-3 ovarian,> 100 µM
same,TGI,UACC-62 melanoma,> 100 µM
same,TGI,MOLT-4 leukemia,> 100 µM
same,TGI,K-562 leukemia,> 100 µM
same,TGI,NCI-H23 lung,> 100 µM
same,TGI,HOP-62 NSCLC,> 100 µM
same,TGI,NCI-H226 lung,> 100 µM
same,TGI,SW-620 colon,> 100 µM
same,TGI,RXF 393 renal,98 µM
same,TGI,EKVX NSCLC,> 100 µM
same,TGI,MALME-3M melanoma,6.82 µM
same,TGI,SF-295 CNS,> 100 µM
same,TGI,HCC-2998 colon,> 100 µM
same,TGI,786-0 renal,> 100 µM
same,TGI,NCI-H460 lung,> 100 µM
same,TGI,SK-MEL-5 melanoma,> 100 µM
same,TGI,SR leukemia,> 100 µM
same,TGI,LOX IMVI melanoma,> 100 µM
same,TGI,CCRF-CEM leukemia,> 100 µM
same,TGI,M14 melanoma,> 100 µM
same,TGI,COLO 205 colon,> 100 µM
same,TGI,HOP-92 NSCLC,> 100 µM
same,TGI,MDA-MB-231 breast,> 100 µM
same,TGI,UO-31 renal,> 100 µM
same,TGI,PC-3 prostate,> 100 µM
same,TGI,HCT-15 colon,> 100 µM
same,TGI,UACC-257 melanoma,> 100 µM
same,TGI,NCI/ADR-RES ovarian,> 100 µM
same,TGI,SK-MEL-28 melanoma,> 100 µM
